Assay results reported in US20250049770A1, “Phosphodiesterase 4 Inhibitor Decreases Thrombosis in Simulated ECMO Model” (Board of Regents, The University of Texas System, priority 2023, published 2025).

Key:
thrombin generation = assay: Thrombin generation (calibrated automated thrombogram) in roller pump ECMO circuit (Trial 1); parameters: species or system human; conditions: for time to thrombin generation: at the 3-hour time point, p<0.04; for time to thrombin generation / peak thrombin generation: heparin with or without roflumilast; for peak thrombin generation: p<0.02
Description: (§1) Whole blood was collected from healthy adults under an U.S. Army Institute of Surgical Research approved standard operating procedure. A simulated neonatal roller pump with a KIDS D100 oxygenator circulated human whole blood at a low or nominal flow rate ([…] and 0.5 L/min) for six hours or until clot formation caused device failure. Samples were collected hourly from the ECMO model that received heparin alone or heparin plus roflumilast (a PDE4 inhibitor). Expression of pro-thrombotic proteins on leukocytes and extracellular vesicles (EV) were measured with high-resolution flow cytometry. Coagulation factor activity, platelet counts, time to thrombin generation, peak thrombin, and endogenous thrombin potential were quantified.
(§2) Whole blood was collected from healthy adult humans into a blood transfer bag containing 0.5 U/mL of heparin with or without roflumilast at 0.01 microgram per mL, under an approved protocol by the U.S. Army Institute of Surgical Research. The blood was then circulated through a roller pump circuit for six hours or until clot formation occurred that prevented forward flow through the circuit. As a control, an aliquot of static blood was removed after priming the circuit and maintained in a similar test environment without circuitry.
(§3) Samples were collected hourly from the roller pump circuit, which circulated blood treated with either heparin only or heparin plus roflumilast, at nominal flow rates (0.5 L/min). The expression of pro-thrombotic phospholipids and proteins on platelets, leukocytes, and extracellular vesicles (EV) was measured using high-resolution flow cytometry. Additionally, thromboelastography (TEG) and coagulation indices were used to assess coagulopathy, and a calibrated automated thrombogram was employed to measure differences in whole blood TEG between the roflumilast-treated and heparin-only samples.

[1] = test system: platelets, leukocytes, and extracellular vesicles (EV); assay: High-resolution flow cytometry of pro-thrombotic proteins in roller pump ECMO circuit (Trial 1); assay type: cell-based, human
Description: (§4) Whole blood was collected from healthy adults under an U.S. Army Institute of Surgical Research approved standard operating procedure. A simulated neonatal roller pump with a KIDS D100 oxygenator circulated human whole blood at a low or nominal flow rate ([…] and 0.5 L/min) for six hours or until clot formation caused device failure. Samples were collected hourly from the ECMO model that received heparin alone or heparin plus roflumilast (a PDE4 inhibitor). Expression of pro-thrombotic proteins on leukocytes and extracellular vesicles (EV) were measured with high-resolution flow cytometry. Coagulation factor activity, platelet counts, time to thrombin generation, peak thrombin, and endogenous thrombin potential were quantified. Whole blood was collected from healthy adult humans into a blood transfer bag containing 0.5 U/mL of heparin with or without roflumilast at 0.01 microgram per mL, under an approved protocol by the U.S. Army Institute of Surgical Research. The blood was then circulated through a roller pump circuit for six hours or until clot formation occurred that prevented forward flow through the circuit. As a control, an aliquot of static blood was removed after priming the circuit and maintained in a similar test environment without circuitry. Samples were collected hourly from the roller pump circuit, which circulated blood treated with either heparin only or heparin plus roflumilast, at nominal flow rates (0.5 L/min). The expression of pro-thrombotic phospholipids and proteins on platelets, leukocytes, and extracellular vesicles (EV) was measured using high-resolution flow cytometry. Additionally, thromboelastography (TEG) and coagulation indices were used to assess coagulopathy, and a calibrated automated thrombogram was employed to measure differences in whole blood TEG between the roflumilast-treated and heparin-only samples.

human whole blood [2] = assay: Circuit patency / clot formation in simulated neonatal roller pump ECMO circuit (Trial 1); conditions: for circuits with sustained patency after six hours: heparin 0.5 U/mL with or without roflumilast, 3/4 vs 2/7 circuits
Description: as §1, §2, §3

[3] = test system: neutrophils and monocytes; conditions: Totani et al (J. Thromb Haemost. 2016); cited from earlier work
human whole blood [4] = assay: Clot formation (d-dimer) and plasminogen activating inhibitor in simulated Cardiohelp HTS in vitro ECMO system (Trial 2); conditions: after five hours of circulation, low flow rate (1 L/min); for clot formation as measured by d-dimer: heparin with or without roflumilast, p<0.04
Description: (§5) Whole blood was collected from healthy adults under an US Army Institution of Surgeryal Review Board approved protocol. A simulated Cardiohelp HTS in vitro ECMO system with a double-lumen veno-venous catheter circulated human whole blood at a low flow rate (1 L/min) for six hours or until clot formation caused device failure. Samples were collected hourly from the ECMO model that received heparin alone or heparin plus roflumilast (a PDE4 inhibitor). Expression of pro-thrombotic proteins on leukocytes and extracellular vesicles (EV) were measured with high-resolution flow cytometry. Coagulation factor activity, platelet counts, time to thrombin generation, peak thrombin, and endogenous thrombin potential were quantified.

monocyte = conditions: cell culture experiments; cited from earlier work
leukocytes = assay: Leukocyte activation measured by TNF-alpha in roller pump ECMO circuit (Trial 1); assay type: cell-based, human; conditions: nominal flow rate (0.5 L/min), six hours; heparin with Roflumilast
Description: as §4, with “circuitry.” for “circuitry. Samples were collected hourly from the roller pump circuit, which circulated blood treated with either heparin only or heparin plus roflumilast, at nominal flow rates (0.5 L/min). The expression of pro-thrombotic phospholipids and proteins on platelets, leukocytes, and extracellular vesicles (EV) was measured using high-resolution flow cytometry. Additionally, thromboelastography (TEG) and coagulation indices were used to assess coagulopathy, and a calibrated automated thrombogram was employed to measure differences in whole blood TEG between the roflumilast-treated and heparin-only samples.”

human whole blood [5] = assay: Thromboinflammation markers in simulated Cardiohelp HTS in vitro ECMO system (Trial 2); assay type: cell-based; conditions: roflumilast added to heparin vs heparin alone; preliminary results
Description: as §5

[6] = in vitro ECMO experiments with roflumilast

Compound	time to thrombin generation (thrombin generation) [min]	peak thrombin generation (thrombin generation) [nm]	thrombin generation (in vitro ECMO experiments, summary) (thrombin generation; [6])	Peak thrombin (comparison in words) (thrombin generation; nominal flow rate (0.5 L/min), six hours, heparin only vs leukodepleted or roflumilast and heparin, p<0.05)	lag time (thrombin generation) (thrombin generation; over six hours of circulation, heparin vs heparin with Roflumilast)	Monocytes expression of tissue factor ([1]; low flow (0.3 L/min) vs low flow with Roflumilast, p<0.05)	P-selection expression ([1]; low flow (0.3 L/min) with Roflumilast vs nominal and low flow, over six hours, p<0.05)	extracellular leukocytes expressing tissue factor ([1]; roller pump circuit, heparin plus roflumilast)	circuits with sustained patency after six hours (human whole blood [2]) [%]	clot formation (in vitro ECMO experiments, summary) (human whole blood [2]; [6])	pro-thrombotic functions of neutrophils and monocytes [3]	clot formation as measured by d-dimer (human whole blood [4]) [µg/mL]	increase in plasminogen activating inhibitor levels, more than heparin alone (human whole blood [4]; roflumilast added to heparin, p<0.03) [fold]	monocyte activation of tissue factor (monocyte)	leukocyte activation as measured by TNF-alpha (leukocytes)	monocyte activation (thromboinflammation) (human whole blood [5])	myeloperoxidase (thromboinflammation) (human whole blood [5])	p-selectin (thromboinflammation) (human whole blood [5])
O=C(Nc1c(Cl)cncc1Cl)c1ccc(OC(F)F)c(OCC2CC2)c1 [roflumilast]	13.9	69	decreased	increased significantly more in heparin only	decreased lag time over six hours of circulation less than roflumilast treated circuits	increased more at low flow than circuits treated with	significantly inhibited	decreased	75	decreased	prevents	0.30 ± 0.06	1.6	decreases	inhibited leukocyte activation	less	less	less
heparin	6.8	207							28			0.49 ± 0.08						
